According to ChEMBL document CHEMBL4316586, “A comprehensive review of salinomycin derivatives as potent anticancer and anti-CSCs agents” (Eur J Med Chem, 2019):
Values belong to the compound of their own block, whether it stands above or below them.

Tests used:
[1] = Antiproliferative activity against human LoVo/DX cells by SRB assay; type: functional, cell-based
MCF7 [2] = assay: Antiproliferative activity against human MCF7 cells by SRB assay; type: functional, cell-based
LoVo = assay: Antiproliferative activity against human LoVo cells by SRB assay; type: functional, cell-based
MCF-10A = assay: Antiproliferative activity against human MCF10A cells by SRB assay; type: cell-based
SK-BR-3 = assay: Antiproliferative activity against human SKBR3 cells by SRB assay; type: functional, cell-based
JIMT-1 [3] = assay: Antiproliferative activity against human JIMT1 cells by SRB assay; type: functional, cell-based
JIMT-1 [4] = assay: Antiproliferative activity against human JIMT1 cells after 72 hrs by MTT assay; type: functional, cell-based; conditions: JIMT-1, 72 h
HCC1937 [5] = assay: Antiproliferative activity against human HCC1937 cells after 72 hrs by MTT assay; type: functional, cell-based; conditions: HCC1937, 72 h
HCC1937 [6] = assay: Antiproliferative activity against human HCC1937 cells; type: functional, cell-based
U-87 MG = assay: Antiproliferative activity against human U87 cells by MTT assay; type: functional, cell-based, U-87MG ATCC
HT-29 = assay: Antiproliferative activity against human HT-29 cells after 48 hrs by MTT assay; type: functional, cell-based; conditions: HT-29, 48 h
JIMT-1 [7] = assay: Antiproliferative activity against human JIMT1 cells; type: functional, cell-based
MDA-MB-231 [8] = assay: Antiproliferative activity against human MDA-MB-231 cells by MTT assay; type: functional, cell-based
JIMT-1 [9] = assay: Antiproliferative activity against human JIMT1 cells by MTT assay; type: functional, cell-based
[10] = Antiproliferative activity against HMLER cells by MTT assay Breast cancer stem cell; type: functional, cell-based; conditions: Homo sapiens
MDA-MB-231 [11] = assay: Antiproliferative activity against human MDA-MB-231 cells by SRB assay; type: functional, cell-based
MDA-MB-231 [12] = assay: Antiproliferative activity against human MDA-MB-231 cells after 48 hrs by MTT assay; type: functional, cell-based; conditions: MDA-MB-231, 48 h
Caco-2 = assay: Antiproliferative activity against human Caco2 cells by MTT assay; type: functional, cell-based
HGC-27 [13] = assay: Antiproliferative activity against human HGC27 cells by MTT assay; type: functional, cell-based
HeLa = assay: Antiproliferative activity against human HeLa cells by MTT assay; type: functional, cell-based
HGC-27 [14] = assay: Antiproliferative activity against human HGC27 cells after 48 hrs by MTT assay; type: functional, cell-based; conditions: HGC-27, 48 h
MCF7 [15] = assay: Antiproliferative activity against human MCF7 cells by MTT assay; type: functional, cell-based

IC50 (MCF7 [2]): 1800 nM
IC50 (LoVo): 1200 nM
IC50 (SK-BR-3): 1000 nM
SMILES: CC[C@@H](C(=O)[C@@H](C)[C@@H](O)[C@H](C)[C@@H]1O[C@@H]([C@@H](CC)C(=O)O)CC[C@@H]1C)[C@H]1O[C@]2(C=C[C@@H](OC(=O)c3ccc(C(=O)O[C@@H]4C=C[C@]5(O[C@H]([C@@H](CC)C(=O)[C@@H](C)[C@@H](O)[C@H](C)[C@@H]6O[C@@H]([C@@H](CC)C(=O)O)CC[C@@H]6C)[C@@H](C)C[C@H]5C)O[C@@]45CC[C@@](C)([C@H]4CC[C@](O)(CC)[C@H](C)O4)O5)cc3)[C@]3(CC[C@@](C)([C@H]4CC[C@](O)(CC)[C@H](C)O4)O3)O2)[C@H](C)C[C@@H]1C
IC50 [1]: 2800 nM
IC50 (MCF-10A): 21000 nM
IC50 (JIMT-1 [3]): 2400 nM

IC50 (HCC1937 [5]): > 10000 nM
SMILES: CC[C@@H](C(=O)[C@@H](C)[C@@H](O)[C@H](C)[C@@H]1O[C@@H]([C@@H](CC)C(=O)O)CC[C@@H]1C)[C@H]1O[C@]2(CCC[C@]3(CC[C@@](C)([C@H]4CC[C@](O)(CC)[C@H](C)O4)O3)O2)[C@H](C)C[C@@H]1C
IC50 (JIMT-1 [4]): 2080 nM

IC50 (HCC1937 [6]): 4360 nM
SMILES: CC[C@@H](C(=O)[C@@H](C)[C@@H](O)[C@H](C)[C@@H]1O[C@@H]([C@@H](CC)C(=O)OCC[Si](C)(C)C)CC[C@@H]1C)[C@H]1O[C@]2(C=C[C@@H](O)[C@]3(CC[C@@](C)([C@H]4CC[C@](O)(CC)[C@H](C)O4)O3)O2)[C@H](C)C[C@@H]1C

SMILES: CC[C@@H](C(=O)[C@@H](C)[C@@H](O)[C@H](C)[C@@H]1O[C@@H]([C@@H](CC)C(=O)O)CC[C@@H]1C)[C@H]1O[C@]2(C=C[C@@H](O)[C@]3(CC[C@@](C)([C@H]4CC[C@](O)(CC)[C@H](C)O4)O3)O2)[C@H](C)C[C@@H]1C [SALINOMYCIN]
IC50 (U-87 MG): 38700 nM
IC50 [1]: 690 nM
IC50 (HT-29): 3210 nM
IC50 (JIMT-1 [7]): 520 nM
IC50 (MDA-MB-231 [8]): 6910 nM
IC50 (JIMT-1 [9]): 520 nM
IC50 [10]: 100 nM
IC50 (MDA-MB-231 [11]): 6420 nM
IC50 (MDA-MB-231 [12]): > 10000 nM
IC50 (Caco-2): 13000 nM
IC50 (HGC-27 [13]): 2570 nM
IC50 (HeLa): 320 nM
IC50 (HGC-27 [14]): 8180 nM
IC50 (MCF7 [15]): 590 nM
